Literature values in US20090209489A1, “Compositions for the treatment of diabetis, system PH disorders, high blood pressure, and a cancer marker system” (priority 2008, published 2009).

System: Group 5 viruses
Conditions: therapeutic doses

CC(=O)N[C@H]1[C@H]([C@H](O)[C@H](O)CO)OC(O)(C(=O)O)C[C@@H]1O (stereo partly shown) [N-Acetyl-Neuraminic Acid]
effectiveness at killing Group 5 viruses relative to any other known medication: more than 1000 times
